From ChEMBL document CHEMBL1125491, “Potential prodrug derivatives of 2',3'-didehydro-2',3'-dideoxynucleosides. Preparations and antiviral activities” (J Med Chem, 1992)

Assays:
[1] = test system: Human immunodeficiency virus 1; assay: Concentration required to protect 50% of HIV-1 infected MT-4 cells against viral cytopathicity.; type: functional, organism-based; conditions: Human immunodeficiency virus 1, MT4
MT4 = assay: Concentration required to reduce the number of viable uninfected MT-4 cells by 50%.; type: functional; conditions: Homo sapiens
[2] = test system: Human immunodeficiency virus 2; assay: Concentration required to protect 50% of HIV-2 infected MT-4 cells against viral cytopathicity.; type: functional, organism-based; conditions: Human immunodeficiency virus 2, MT4

SMILES | EC50 [1] [µM] | CC50 (MT4) [µM] | EC50 [2] [µM]
Nc1ncnc2c1ncn2[C@H]1CC[C@@H](CO)O1 | 41 | > 100 | 72
CC1=CN([C@H]2C[C@H](OP(=O)(O)OC[C@@H]3C=C[C@H](n4ccc(N)nc4=O)O3)[C@@H](CO)O2)C(=O)NC1N (stereo partly specified) | 1.8 | 28 | 1.6
CC1=CN([C@H]2C[C@H](OP(=O)(O)OC[C@@H]3C=C[C@H](n4cnc5c(N)ncnc54)O3)[C@@H](CO)O2)C(=O)NC1N (stereo partly specified) | 26 | 198 | 29
Nc1ccn(C2C=CC(COP(O)(=S)c3ccccc3)O2)c(=O)n1 (stereo unspecified) | > 500 | > 500 | > 500
COP(=O)(O)OCC1C=CC(n2cnc3c(N)ncnc32)O1 (stereo unspecified) | 38 | 168 | 58
COP(=O)(O)OCC1C=CC(n2ccc(N)nc2=O)O1 (stereo unspecified) | 3.1 | 27 | 1.7
Nc1ncnc2c1ncn2C1C=CC(COP(O)(=S)c2ccccc2)O1 (stereo unspecified) | > 500 | > 500 | > 500
Nc1ncnc2c1ncn2C1C=CC(COP(=O)(O)Oc2ccccc2)O1 (stereo unspecified) | 24 | 157 | 37
Nc1ccn(C2C=CC(COP(=O)(O)Oc3ccccc3)O2)c(=O)n1 (stereo unspecified) | 1.9 | 35 | 1.5
Nc1ccn(C2C=CC(COP(=O)(O)c3ccccc3)O2)c(=O)n1 (stereo unspecified) | 111 | > 500 | 136
Nc1ncnc2c1ncn2C1C=CC(COP(=O)(O)c2ccccc2)O1 (stereo unspecified) | > 500 | > 500 | > 500
Nc1ccn([C@H]2CC[C@@H](CO)O2)c(=O)n1 [ZALCITABINE] | 0.91 | 30 | 0.69
